The record followed here is patent publication US20110152313A1 (MACQUARIE UNIVERSITY, priority 2008, published 2011).

One assay deals with T1, CDK5/p25 (Homo sapiens, UniProt Q00535).
T1 construct: made in house
In words: protein kinase activity assay ([γ-32P] ATP, histone H1). Format: biochemical. The conditions noted are these: 15 μM ATP, 30° C.; tested up to 100 μM; read-out: IC50 CDK5/p25. As to the method: Buffer A: 10 mM MgCl2, 1 mM EGTA, 1 mM DTT, 25 mM Tris-HCl pH 7.5, 50 μg heparin/mL. Buffer C: 60 mM β-glycerophosphate, 15 mM p-nitrophenylphosphate, 25 mM Mops (pH 7.2), 5 mM EGTA, 15 mM MgCl2, 1 mM DTT, 1 mM sodium vanadate, 1 mM phenyl phosphate.
Anticancer activity is commonly associated with the inhibition of kinase enzymes. […] Blank values are subtracted and activities expressed as percent of the maximal activity, i.e. in the absence of inhibitors (Table 4). Controls were performed with appropriate dilutions of DMSO, which was used to dissolve all test compounds.
CDK1/cyclin B (native M phase starfish oocytes), and CDK5/p25 (recombinant human) can be prepared according to the prior art (Meijer, L.; Thunnissen, A. M. W. H.; White, A. W.; Gamier, M.; Nikolic, M., et al. Chem. Biol. 2000, 7, 51-63). […] ATP (3,000 Ci/mmol, 10 mCi/mL) in a final volume of 30 μL. After 30 min. incubation at 30° C., 25 μL aliquots of supernatant are spotted onto 2.5×3 cm pieces of Whatman P81 phosphocellulose paper and, 20 s later, the filters are washed five times (for at least 5 min. each time) in a solution of 10 mL phosphoric acid/L of water. The wet filters are then counted in the presence of 1 mL ACS (Amersham) scintillation fluid.

The subject of assay [1] is new blood vessel growth from isolated rat aorta fragments. In words: rat aorta fragment vessel outgrowth (anti-angiogenic) assay in fibrin gel. The format is cell-based. Particulars: 120 h, read-out: Anti-Angiogenesis Activity IC50 (concentration that inhibits 50% of the new blood vessel growth); rat aorta fragments, day 5; >100 = no inhibition under the assay conditions. As to the method: A potentially non-toxic method of treating cancer is to inhibit angiogenesis. The human anti-angiogenic and therefore antiproliferative action of drugs can be assessed by many methods well known in the prior art. […] Briefly, thoracic aortas were excized from 3-9 month-old female Fischer rats, cross-sectioned at 1 mm intervals and embedded individually in 0.5 ml of a fibrin gel containing 5 μg/ml of aprotinin (to prevent fibrinolysis) in each well of a 48-well culture plate. Immediately after vessel embedding, 0.5 ml/well of medium M199, supplemented with 20% foetal calf serum, 0.1% E-aminocaproic acid, 1% L-glutamine and antibiotics, was added. Each test compound (10 mg/ml, dissolved in DMSO) was added to the medium (maximum final concentration of test compound 100 μg/ml) and each treatment was performed in six wells. Control cultures received medium containing 0.1% DMSO but without any test compound. […] Vessels were cultured at 37° C. in 5% CO2 in air for 5 days and the medium, with or without test compound, was changed on day 4. Vessel growth was quantified manually under 40× magnification on day 5, with growth being estimated as the percentage of the field (×40) around the vessel fragment that was occupied by vessel outgrowths. By counting the number of vessels formed after 5 days at three to six different concentrations (in triplicate) it is possible to determine an IC50 values for each compound compared to a positive and negative (solvent) control. The percentage inhibition (0-100%) is plotted against compound concentration and a 3-parameter sigmoidal (dose-response) curve fitted (Graphpad Prism v 4) by non-linear regression.

SMILES strings stand for the structures. Values after ≈ are worked out from the molar mass of the structure shown.

T1 sequence (Q00535 whole entry): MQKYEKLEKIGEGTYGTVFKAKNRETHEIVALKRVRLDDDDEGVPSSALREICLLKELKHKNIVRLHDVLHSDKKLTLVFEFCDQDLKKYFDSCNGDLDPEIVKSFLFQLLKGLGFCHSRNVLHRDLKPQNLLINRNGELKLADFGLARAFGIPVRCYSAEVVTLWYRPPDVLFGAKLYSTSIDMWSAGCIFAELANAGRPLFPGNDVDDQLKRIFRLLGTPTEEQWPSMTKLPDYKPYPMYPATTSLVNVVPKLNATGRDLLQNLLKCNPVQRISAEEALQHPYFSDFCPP
T1 sequence (Q15078 99-307 partner limits assumed): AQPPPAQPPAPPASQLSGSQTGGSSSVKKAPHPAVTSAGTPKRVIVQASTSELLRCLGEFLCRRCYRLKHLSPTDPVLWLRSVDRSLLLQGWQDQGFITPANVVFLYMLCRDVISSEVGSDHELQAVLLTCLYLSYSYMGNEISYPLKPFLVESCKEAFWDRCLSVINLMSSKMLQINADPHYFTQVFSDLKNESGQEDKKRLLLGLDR

Consider `Nc1nc2c(-c3cc(Br)c(Br)[nH]3)nccc2[nH]1` [Ageladine A, ageladine A, reference compound], for which the IC50 is > 100 µM on CDK5/p25 and 25 µg/mL (≈ 70 µM) in assay [1].
